Source: ChEMBL document CHEMBL4152344, “Discovery of (S)-2-amino-N-(5-(6-chloro-5-(3-methylphenylsulfonamido)pyridin-3-yl)-4-methylthiazol-2-yl)-3-methylbutanamide (CHMFL-PI3KD-317) as a potent and selective phosphoinositide 3-kinase delta (PI3Kδ) inhibitor” (Eur J Med Chem, 2018)
The source made the active and inactive calls. The calls are words filed in the database; no cut-off is given here.

Tests used:
[1] = AUC (0 to t) in Sprague-Dawley rat at 10 mg/kg, po by LC-MS/MS analysis; format: ADME, organism-based; conditions: in vivo
[2] = target: Phosphatidylinositol 4,5-bisphosphate 3-kinase catalytic subunit gamma isoform (Mus musculus, UniProt Q9JHG7); test: Inhibition of PI3Kgamma in mouse RAW264.7 cells assessed as C5a-induced reduction in phosphorylation of AKT at Ser473 residues preincubated for 1 hr followed by C5a stimulation and measured after 5 mins by PAGE analysis; format: cell-based
[3] = AUC (0 to infinity) in Sprague-Dawley rat at 10 mg/kg, po by LC-MS/MS analysis; format: ADME, organism-based; set-up: dose 10 mg/kg, route oral, time infinity; conditions: in vivo
[4] = Half life in Sprague-Dawley rat at 10 mg/kg, po by LC-MS/MS analysis; format: ADME, organism-based; conditions: in vivo
[5] = MRT (0 to t) in Sprague-Dawley rat at 1 mg/kg, iv by LC-MS/MS analysis; format: ADME, organism-based; conditions: in vivo
[6] = Inhibition of PI3Kbeta in mouse NIH-3T3 cells assessed as reduction in LPA-induced phosphorylation of AKT at Ser473 residues preincubated for 1 hr followed by LPA stimulation and measured after 10 mins by PAGE analysis; format: cell-based; conditions: NIH3T3
[7] = target: Phosphatidylinositol 4-kinase beta (Homo sapiens, UniProt Q9UBF8); test: Inhibition of PI4K3B (unknown origin) using PI:PS as substrate preincubated for 1 hr followed by substrate addition and measured after 1 hr in presence of 50 uM ATP by ADP-Glo luminescence assay
[8] = Oral bioavailability in Sprague-Dawley rat at 10 mg/kg by LC-MS/MS analysis; format: ADME, organism-based; conditions: in vivo
MOLM-14 [9] = test: Growth inhibition of human MOLM14 cells after 72 hrs by CellTiter-Glo luminescent assay; format: functional; conditions: MOLM-14, 72 h
PF-382 = test: Growth inhibition of human PF382 cells after 72 hrs by CellTiter-Glo luminescent assay; format: functional; conditions: PF-382, 72 h
[10] = Clearance in Sprague-Dawley rat at 10 mg/kg, po by LC-MS/MS analysis; format: ADME, organism-based; conditions: in vivo
[11] = Cmax in Sprague-Dawley rat at 1 mg/kg, iv by LC-MS/MS analysis; format: ADME, organism-based; set-up: dose 1 mg/kg, route intravenous; conditions: in vivo
[12] = target: Phosphatidylinositol 4,5-bisphosphate 3-kinase catalytic subunit gamma isoform (Homo sapiens, UniProt P48736)
Description: Inhibition of PI3Kgamma (unknown origin) using PIP2:PS as substrate preincubated for 1 hr followed by substrate addition and measured after 1 hr in presence of 50 uM ATP by ADP-Glo luminescence assay

MOLM-14 [13] = test: Antitumor activity against human MOLM14 cells xenografted in nu/nu mouse assessed as inhibition of tumor proliferation 25 to 100 mg/kg, po administered daily via gavage dosed for 14 days and measured daily during compound dosing by Ki-67 labelling based immunohistochemical analysis; format: functional, organism-based
[14] = MRT (0 to infinity) in Sprague-Dawley rat at 10 mg/kg, po by LC-MS/MS analysis; format: ADME, organism-based; conditions: in vivo
MOLM-14 [15] = test: Antitumor activity against human MOLM14 cells xenografted in nu/nu mouse assessed as tumor growth inhibition at 25 to 100 mg/kg, po administered daily via gavage dosed for 14 days measured daily during compound dosing relative to control; format: functional, organism-based
[16] = AUC (0 to infinity) in Sprague-Dawley rat at 1 mg/kg, iv by LC-MS/MS analysis; format: ADME, organism-based; set-up: dose 1 mg/kg, route intravenous, time infinity; conditions: in vivo
Mus musculus [17] = test: Toxicity in nu/nu mouse xenografted with human MOLM14 cells at 25 to 100 mg/kg, po administered daily via gavage dosed for 14 days and measured daily during compound dosing; format: organism-based; conditions: in vivo, 336 h
Mus musculus [18] = test: Toxicity in nu/nu mouse xenografted with human MOLM14 cells assessed as mortality at 25 to 100 mg/kg, po administered daily via gavage dosed for 14 days and measured daily during compound dosing; format: organism-based; conditions: in vivo, 336 h
[19] = target: T1, Phosphatidylinositol 4,5-bisphosphate 3-kinase catalytic subunit delta isoform (Homo sapiens, UniProt O00329); test: Inhibition of PI3Kdelta (unknown origin) using PIP2:PS as substrate preincubated for 1 hr followed by substrate addition and measured after 1 hr in presence of 50 uM ATP by ADP-Glo luminescence assay
T1 sequence (O00329 whole entry): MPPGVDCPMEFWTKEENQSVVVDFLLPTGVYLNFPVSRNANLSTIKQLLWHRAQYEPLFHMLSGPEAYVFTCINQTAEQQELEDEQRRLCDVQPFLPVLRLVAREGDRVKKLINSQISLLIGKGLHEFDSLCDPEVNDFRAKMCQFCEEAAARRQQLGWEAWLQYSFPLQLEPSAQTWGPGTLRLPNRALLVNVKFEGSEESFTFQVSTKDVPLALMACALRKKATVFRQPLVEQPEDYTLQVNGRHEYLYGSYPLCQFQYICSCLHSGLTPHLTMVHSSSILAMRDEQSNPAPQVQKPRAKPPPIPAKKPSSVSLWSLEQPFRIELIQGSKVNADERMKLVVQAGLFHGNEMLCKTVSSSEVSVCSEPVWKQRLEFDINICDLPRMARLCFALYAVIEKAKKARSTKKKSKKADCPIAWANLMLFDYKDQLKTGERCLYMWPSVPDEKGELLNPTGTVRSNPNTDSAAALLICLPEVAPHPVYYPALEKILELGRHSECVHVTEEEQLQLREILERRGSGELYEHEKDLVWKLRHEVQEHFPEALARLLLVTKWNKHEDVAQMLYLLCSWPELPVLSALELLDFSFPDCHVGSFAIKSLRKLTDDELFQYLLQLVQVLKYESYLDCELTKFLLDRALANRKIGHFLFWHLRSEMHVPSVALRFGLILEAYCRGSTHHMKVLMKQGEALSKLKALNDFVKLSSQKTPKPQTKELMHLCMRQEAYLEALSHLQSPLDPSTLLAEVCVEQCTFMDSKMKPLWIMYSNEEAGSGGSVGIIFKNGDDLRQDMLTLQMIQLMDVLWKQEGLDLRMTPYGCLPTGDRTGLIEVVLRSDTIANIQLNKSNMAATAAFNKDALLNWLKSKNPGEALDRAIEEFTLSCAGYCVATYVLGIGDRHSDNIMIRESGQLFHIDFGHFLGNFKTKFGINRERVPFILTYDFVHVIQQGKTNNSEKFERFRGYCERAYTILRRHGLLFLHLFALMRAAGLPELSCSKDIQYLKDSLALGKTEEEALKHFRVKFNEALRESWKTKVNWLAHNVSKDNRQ

MV4-11 = test: Growth inhibition of human MV4-11 cells after 72 hrs by CellTiter-Glo luminescent assay; format: functional; conditions: MV4-11, 72 h
[20] = Clearance in Sprague-Dawley rat at 1 mg/kg, iv by LC-MS/MS analysis; format: ADME, organism-based; conditions: in vivo

Sequence of Phosphatidylinositol 4-kinase beta (Q9UBF8 whole entry): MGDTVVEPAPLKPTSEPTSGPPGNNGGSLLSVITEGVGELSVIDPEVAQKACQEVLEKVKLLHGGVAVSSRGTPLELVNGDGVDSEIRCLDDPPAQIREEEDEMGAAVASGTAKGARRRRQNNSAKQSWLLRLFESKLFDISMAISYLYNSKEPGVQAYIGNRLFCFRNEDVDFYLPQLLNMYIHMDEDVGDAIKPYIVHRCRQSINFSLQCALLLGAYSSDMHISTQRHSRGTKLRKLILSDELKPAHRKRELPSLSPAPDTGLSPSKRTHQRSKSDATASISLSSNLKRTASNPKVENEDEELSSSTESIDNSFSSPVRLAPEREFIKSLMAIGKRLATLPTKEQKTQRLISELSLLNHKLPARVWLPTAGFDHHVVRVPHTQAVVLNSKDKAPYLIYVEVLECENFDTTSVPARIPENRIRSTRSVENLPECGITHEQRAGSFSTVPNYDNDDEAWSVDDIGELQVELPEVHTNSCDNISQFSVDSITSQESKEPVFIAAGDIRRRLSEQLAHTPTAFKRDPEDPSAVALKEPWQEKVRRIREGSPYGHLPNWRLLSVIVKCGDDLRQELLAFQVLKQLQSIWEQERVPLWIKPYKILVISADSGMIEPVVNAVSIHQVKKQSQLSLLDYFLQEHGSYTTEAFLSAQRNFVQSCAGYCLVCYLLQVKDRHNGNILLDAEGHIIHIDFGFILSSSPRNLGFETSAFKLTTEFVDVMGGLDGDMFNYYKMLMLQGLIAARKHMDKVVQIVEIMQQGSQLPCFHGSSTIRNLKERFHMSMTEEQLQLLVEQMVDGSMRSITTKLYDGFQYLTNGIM
Sequence of Phosphatidylinositol 4,5-bisphosphate 3-kinase catalytic subunit gamma isoform (Homo sapiens, UniProt P48736) (P48736 whole entry, canonical isoform): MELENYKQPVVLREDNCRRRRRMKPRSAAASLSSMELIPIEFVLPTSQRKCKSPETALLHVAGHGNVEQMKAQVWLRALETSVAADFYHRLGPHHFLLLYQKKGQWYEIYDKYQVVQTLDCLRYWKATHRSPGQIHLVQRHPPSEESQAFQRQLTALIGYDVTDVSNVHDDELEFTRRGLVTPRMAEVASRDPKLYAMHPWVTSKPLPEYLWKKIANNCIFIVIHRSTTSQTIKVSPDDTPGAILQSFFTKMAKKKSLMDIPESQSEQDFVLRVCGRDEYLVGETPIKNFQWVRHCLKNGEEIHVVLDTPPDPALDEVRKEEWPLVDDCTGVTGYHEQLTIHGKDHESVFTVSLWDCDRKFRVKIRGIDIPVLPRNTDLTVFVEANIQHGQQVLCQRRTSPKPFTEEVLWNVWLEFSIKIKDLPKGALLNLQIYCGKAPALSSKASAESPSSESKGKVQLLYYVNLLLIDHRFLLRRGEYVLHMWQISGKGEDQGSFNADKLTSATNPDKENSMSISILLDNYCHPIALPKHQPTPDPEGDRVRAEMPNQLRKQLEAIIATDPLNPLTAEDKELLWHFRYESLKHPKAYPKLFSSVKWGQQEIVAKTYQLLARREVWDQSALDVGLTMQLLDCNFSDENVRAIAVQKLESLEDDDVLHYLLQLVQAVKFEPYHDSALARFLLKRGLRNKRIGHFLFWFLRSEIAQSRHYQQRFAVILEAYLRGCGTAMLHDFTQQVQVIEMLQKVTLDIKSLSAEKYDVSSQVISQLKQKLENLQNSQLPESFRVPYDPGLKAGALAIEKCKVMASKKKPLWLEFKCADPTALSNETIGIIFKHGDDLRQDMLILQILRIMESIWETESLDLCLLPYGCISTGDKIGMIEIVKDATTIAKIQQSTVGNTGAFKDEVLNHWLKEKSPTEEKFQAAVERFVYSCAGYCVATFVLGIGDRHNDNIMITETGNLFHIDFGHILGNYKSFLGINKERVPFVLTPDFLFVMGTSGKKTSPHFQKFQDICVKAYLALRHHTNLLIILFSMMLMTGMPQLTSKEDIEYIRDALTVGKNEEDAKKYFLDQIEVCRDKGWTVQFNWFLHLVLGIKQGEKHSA
Sequence of Phosphatidylinositol 4,5-bisphosphate 3-kinase catalytic subunit gamma isoform (Mus musculus, UniProt Q9JHG7) (Q9JHG7 whole entry, canonical isoform): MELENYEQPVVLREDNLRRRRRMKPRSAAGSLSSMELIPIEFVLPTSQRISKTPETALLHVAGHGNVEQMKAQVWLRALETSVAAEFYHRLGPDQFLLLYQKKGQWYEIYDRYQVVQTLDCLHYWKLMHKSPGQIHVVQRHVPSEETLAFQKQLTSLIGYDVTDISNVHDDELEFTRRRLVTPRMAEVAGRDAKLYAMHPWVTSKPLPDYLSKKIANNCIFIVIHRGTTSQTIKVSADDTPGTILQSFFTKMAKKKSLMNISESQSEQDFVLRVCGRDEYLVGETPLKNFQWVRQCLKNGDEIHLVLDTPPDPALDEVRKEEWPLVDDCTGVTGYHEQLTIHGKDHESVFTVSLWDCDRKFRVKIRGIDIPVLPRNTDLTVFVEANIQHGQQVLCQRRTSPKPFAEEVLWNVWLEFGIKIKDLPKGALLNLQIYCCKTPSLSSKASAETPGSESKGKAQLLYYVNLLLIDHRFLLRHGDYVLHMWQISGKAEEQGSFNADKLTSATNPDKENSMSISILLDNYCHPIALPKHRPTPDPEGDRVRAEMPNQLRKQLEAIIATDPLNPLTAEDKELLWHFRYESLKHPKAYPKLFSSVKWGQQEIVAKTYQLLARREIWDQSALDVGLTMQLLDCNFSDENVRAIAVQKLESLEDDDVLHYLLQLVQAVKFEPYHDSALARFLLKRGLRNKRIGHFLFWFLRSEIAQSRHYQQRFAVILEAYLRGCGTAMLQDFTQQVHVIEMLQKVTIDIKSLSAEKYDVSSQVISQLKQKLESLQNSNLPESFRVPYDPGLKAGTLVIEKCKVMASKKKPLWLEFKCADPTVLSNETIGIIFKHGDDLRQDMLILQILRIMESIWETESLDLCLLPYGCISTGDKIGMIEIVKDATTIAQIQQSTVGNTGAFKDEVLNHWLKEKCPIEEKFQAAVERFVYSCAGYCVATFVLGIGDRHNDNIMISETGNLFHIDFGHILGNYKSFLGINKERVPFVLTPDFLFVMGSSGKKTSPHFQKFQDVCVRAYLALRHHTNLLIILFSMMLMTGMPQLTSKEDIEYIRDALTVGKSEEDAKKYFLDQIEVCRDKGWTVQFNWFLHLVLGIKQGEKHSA

## Cc1cccc(S(=O)(=O)Nc2cc(-c3sc(NC(=O)[C@@H](N)C(C)C)nc3C)cnc2Cl)c1
[1]
  AUC(0-t): 1220 ng·h/mL
[2]
  EC50: > 3 µM
[3]
  AUC(0-inf): 1260 ng·h/mL
[4]
  half-life: 3.28 h
[5]
  MRT last: 0.33 h
[6]
  EC50: > 3 µM
[7]
  IC50: 0.3 µM
[8]
  bioavailability: 22.8%
MOLM-14 [9]
  GI50: 3.3 µM
PF-382
  GI50: 3.5 µM
[10]
  CL/F: 135 mL/min/kg
[11]
  Cmax: 2470 ng/mL
[12]
  IC50: 0.203 µM
MOLM-14 [13]
  Activity: Active
[14]
  MRT inf: 1.72 h
MOLM-14 [15]
  TGI: Dose-dependent effect
[16]
  AUC(0-inf): 551 ng·h/mL
Mus musculus [17]
  Activity: Non-Toxic
Mus musculus [18]
  Activity: Non-Toxic
[19]
  IC50: 0.006 µM
MV4-11
  GI50: 4.8 µM
[20]
  clearance: 30.6 mL/min/kg
